Tests used:
U87 cells [1] = assay: Viability test (LIVE/DEAD kit, flow cytometry); format: cell-based, Human
Procedure: (§1) Cell culture: Human glioblastoma-astrocytoma cell line U87 MG from the American Type Culture Collection (reference ATCC-HTB-14) were cultured in Dulbecco's modified eagles medium (DMEM, Gibco Corp) supplemented with 10% fetal calf serum (FCS, Gibco Corp), in a humidified atmosphere with 5% CO2 at 37° C.
Viability Test: The viability study of U87 cells treated or not with the alkoxyamine was measured by the LIVE/DEAD® Viability/Cytotoxicity Kit (Molecular Probes, Invitrogen, Life Technologies). Briefly, the cells were allowed to grow during 24 h on 24 multiwell plates (Becton-Dickinson, 2 cm^2/well). They were then treated with the alkoxyamine at concentrations ranging from 0.1 to 3 mM and tested for viability at distinct observation times (1, 3, 6, 24 or 72 h). To do this the adherent cells were dissociated from the plate by trypsinization and pelleted by centrifugation. Then, the cells were resuspended at 10^6 cells/mL on calcein-am and ethidium homodimer-1 solution during 20 minutes at room temperature and analyzed on a Guava easyCyte flow cytometer/counter (Millipore). U87 cells viability was also measured after treatment with previously homolysed alkoxyamine. For these experiments, the alkoxyamine was incubated in the culture medium during 72 h at 6 mM without the cells. U87 cells were then treated with different concentrations of this homolysed alkoxyamine for 1 h and a viability test was performed as previously described. The viability test in the presence of the free radical scavenger was carried out with an alkoxyamine concentration of 3 mM and an incubation time of 1 h. U87 cells viability was measured versus increasing concentrations the radical scavenger, trihydroxyethylrutin (Santa Cruz Biotechnology, inc.) namely, 20, 50 or 100 mM.

U87 cells [2] = assay: Oxidative stress (carboxy-H2DCFDA probe, flow cytometry); format: cell-based, Human; conditions: 3 mM, 1 h
Procedure: as §1
Oxidative stress: The cells were grown in a 24 multiwell plate as previously described. Then, cells were dissociated using 0.05% trypsin (Invitrogen, Carlsbad, Calif., USA) and suspended at a density of 1×10^6 cells/mL in carboxy-H2DCFDA (Molecular Probes, Invitrogen, Life Technologies) at 50 μM. After 30 minutes incubation at 37° C., cells were washed with phosphate buffered saline (PBS). Cells were centrifuged and resuspended with cell culture media containing or not 3 mM alkoxyamine with or without trihydroxyethylrutin at 20 or 50 mM. After incubation time the cells were washed and analyzed on a Guava easyCyte flow cytometer/counter.

U87 cells [3] = assay: Mitochondrial alterations measurements (TMRE, NAO); format: cell-based, Human
Procedure: as §1
Mitochondrial alterations measurements. The red fluorescent dye tetramethylrhodamine ethyl ester (TMRE, Molecular Probes, Invitrogen, Life Technologies) was used to follow variations in mitochondrial membrane potential. This cationic probe accumulates in polarized mitochondria through the electrochemical gradient. Nonyl Acridine Orange (NAO, Molecular Probes, Invitrogen, Life Technologies) was then used as a complementary assay to assess the changes in mitochondrial morphology. Cells were plated on 24 multi-well plates (Becton-Dickinson, 2 cm^2/well) during 24 h and treated with a range of ALK-1 concentrations (0.1; 0.25; 0.375; 0.5; 0.75; 1.0 and 1.5 mM). After 3, 24 or 72 h, cells were resuspended in TMRE (250 nM) or NAO (500 nM) and incubated 30 minutes at 37° C., 5% CO2. Incubation with 0.5 mM of Carbonyl cyanide 3-chlorophenylhydrazone (CCCP, Sigma-Aldrich) was performed as positive control of the mitochondrial depolarization staining. Then, cells were washed and analyzed by flow cytometry. All the experiments were performed three times.

U87 cells [4] = assay: Cell death analysis by annexin V/propidium iodide staining; format: cell-based, Human
Procedure: as §1
Cell death analysis by annexin V/propidium iodide staining. Cell death was detected by annexin V-FITC (Molecular Probes, Invitrogen, Life Technologies) binding to exposed […] (PS) residues at the surface of cells. Cells were treated with ALK-1 at concentrations ranging from 0.1 to 1.5 mM at 37° C. and tested at distinct observation times (3, 24 or 72 h). After treatment, cells were re-suspended in staining buffer containing propidium iodide (PI, 2 μg/mL) and annexin V-FITC. Double-labeling was performed at room temperature for 15 min in darkness. Then, the percentage of viable (IP−/AV−), early apoptotic (IP−/AV+) and late apoptosis/necrotic cells (IP+/AV+) was quantified by flow cytometry. These experiments were performed twice.

U87 cells [5] = assay: Apoptosis detection through caspase-3/-7 assay; format: cell-based, Human
Procedure: as §1
Apoptosis detection through caspase-3/-7 assay. Quantitative assessment of apoptotic cells was also conducted by the detection of caspase activity using the Vybrant® FAM Caspase-3 and -7 Assay Kit (Molecular Probes, Invitrogen, Life Technologies). Briefly, cells were treated with the previously described ALK-1 concentrations during 3, 24 or 72 h. After the alkoxyamine treatment, the cells were dissociated from the support, washed and incubated 1 h at 37° C. in FLICA working solution. Then, the cells were washed and green fluorescence was measured by flow cytometry. These experiments were performed twice.

[6] = Monitoring of ALK-1 homolysis by Overhauser-enhanced MRI (OMRI); format: physicochemical
Excerpt: EPR Cavity and MRI devices. The OMRI experiment were done in a C-shaped 0.2 T MRI system (Magnetom Open Viva, Siemens, Erlangen, Germany) and a resonant TE011 transverse electric mode EPR cavity setup (Bruker, Wissembourg, France) as described previously. The EPR cavity, placed at the center of the magnet, was used to saturate the electron spin transition of the nitroxide SG1 produced upon ALK-1 homolysis. A homemade saddle-shaped MRI coil (28 mm in diameter and 29 mm in length) in the EPR cavity was used for imaging.
Electron spin saturation was carried out at 5.4573 GHz, corresponding to the first line at high field from the center of the EPR spectrum. The proton frequency was 8.24 MHz. Sample temperature was kept at 37° C.
OMRI experiments were performed in two NMR tubes (4 mm inner diameter): one containing 0.8 mM of SG1 nitroxide in phosphate buffer saline (not shown) and the other with 0.8 mM of ALK-1 in DMEM, 10% FCS. ALK-1 homolysis was followed for 48 hours.
Pulse sequences. […] All MR adjustments were done manually, using the same fixed receiver amplification gain for both measurements, without (Soff) and with (Son) HF irradiation, so that signals can be directly compared and Overhauser enhancements (Son/Soff) calculated.
Post-processing. […] Signal intensity was measured in a rectangular region of interest of 2 mm^2 positioned in the NMR tube area. […]

[7] = cited from earlier work

Row | Structure (SMILES) | cells saved by the free radical scavenger (U87 cells [1]; 3 mM alkoxyamine, 1 h, with free radical scavenger (trihydroxyethylrutin)) | cells killed (U87 cells [1]; 3 mM, one hour) | cytotoxic effect (U87 cells [1]; 0.1 to 3 mM) | toxicity for U87 cells of previously homolysed alkoxyamine (U87 cells [1]; same concentration, previously homolysed (72 h in culture medium), 1 h treatment) | oxidative stress (U87 cells [2]) | NAO staining (U87 cells [3]; 24 h, ALK-1 concentrations greater than 0.5 mM) | concentration from which the mitochondrial potential drops (TMRE) (U87 cells [3]; all times of observation (3, 24, 72 h)) | necrotic or apoptotic cells (PI+/AV+) (U87 cells [4]; 3 h, 1.5 mM) | necrotic or apoptotic cells (PI+/AV+) (U87 cells [4]; 24 h, 1 mM) | PI+/AV+ cells (U87 cells [4]; 72 h, 0.5 mM) | cells carrying activated caspases (U87 cells [5]; 3 h, 1.5 mM) | caspase positive cells (U87 cells [5]; 24 h, 1 mM) | caspase+ cells (U87 cells [5]; 72 h, 0.25 mM) | caspase positive cells (U87 cells [5]; 72 h, 0.5 mM) | Ea (homolysis activation energy) ([6]; afforded by the OMRI t1/2) | half-life at 0.8 mM ([6]; cell culture medium (DMEM, 10% FCS), 0.8 mM, culture cell medium, 37° C., OMRI, read-out: experimental t1/2 of homolysis) | Ea (homolysis activation energy), value reported [7] | mitochondrial potential (TMRE) (U87 cells [3]; 0.5 mM CCCP positive control, all incubation times) | accessibility of the cardiolipins to NAO (U87 cells [3]; 0.5 mM CCCP, independently of incubation time)
1 | CCOP(=O)(OCC)C(N(OC(C)c1cc[n+](C)cc1)C(C)(C)C)C(C)(C)C (stereo not shown) [ALK-1, N-methyl 4-(1-((tert-butyl(1-(diethoxyphosphoryl)-2,2-dimethylpropyl)amino)oxy)ethyl)pyridin-1-ium 4-methylbenzenesulfonate] | 80% | approximately 75% | dose-dependent cytotoxic effect | do not carry any toxicity | strong oxidative stress | increased | ≥ 0.5 mM | most cells were necrotic or apoptotic cells | 94% | most cells were PI+/AV+ | 92% | 88% | more than 40% | 80% | 109 kJ/mol | ~2.08 h | 106 kJ/mol | – | –
2 | N#CC(C#N)=NNc1cccc(Cl)c1 [CCCP, Carbonyl cyanide 3-chlorophenylhydrazone, reference compound] | – | – | – | – | – | – | – | – | – | – | – | – | – | – | – | – | – | expected drop of the mitochondrial potential | either neutral or positive
